The structures appear in SMILES notation.

Data set [1] is described as follows: Cytotoxicity in RT-qPCR assay (Cp of housekeeping gene β-actin). The class given is cell-based. Conditions: African green monkey. As to the method:
(§1) The antiviral activity of the compounds of the invention was tested against DENV-1 strain TC974 #666 (NCPV), DENV-2 strain 16681, DENV-3 strain H87 (NCPV) and DENV-4 strain H241 (NCPV) in a RT-qPCR assay. Therefore, Vero cells were infected with either DENV-1, or -2, or -3, or -4 in the presence or absence of test compounds. At day 3 post-infection, the cells were lysed and cell lysates were used to prepare cDNA of both a viral target (the 3′UTR of DENV; Table 2) and cellular reference gene (β-actin, Table 2). Subsequently, a duplex real time PCR was performed on a Lightcycler480 instrument. The generated Cp value is inversely proportional to the amount of RNA expression of these targets. Inhibition of DENV replication by a test compound results in a shift of Cp's for the 3′UTR gene. On the other hand, if a test compound is toxic to the cells, a similar effect on β-actin expression will be observed. The comparative ΔΔCp method is used to calculate EC50, which is based on the relative gene expression of the target gene (3′UTR) normalized with the cellular housekeeping gene (β-actin). In addition, CC50 values are determined based on the Cp values acquired for the housekeeping gene β-actin.
(§2) The culture medium consisted of minimal essential medium supplemented with 2% of heat-inactivated fetal calf serum, 0.04% gentamycin (50 mg/mL) and 2 mM of L-glutamine. Vero cells, obtained from ECACC, were suspended in culture medium and 75 μL/well was added in 96-well plates (10000 cells/well), which already contain the antiviral compounds. […] In addition, each plate contains wells which are assigned as virus controls (containing cells and virus in the absence of compound) and cell controls (containing cells in the absence of virus and compound). Once the cells were added in the plates, the plates were incubated in a fully humidified incubator (37° C., 5% CO2) until the next day. Dengue viruses serotype-1, 2, 3 and 4 were diluted in order to obtain a Cp of ˜22-24 in the assay. Therefore, 25 μL of virus suspension was added to all the wells containing test compound and to the wells assigned as virus control. In parallel, 25 μL of culture medium was added to the cell controls. Next, the plates were incubated for 3 days in a fully humidified incubator (37° C., 5% CO2). After 3 days, the supernatant was removed from the wells and the cells were washed twice with ice-cold PBS (˜100 μL). The cell pellets within the 96-well plates were stored at −80° C. for at least 1 day. Next, RNA was extracted using the Cells-to-CT™ lysis kit, according to the manufacturer's guideline (Life Technologies). The cell lysates can be stored at −80° C. or immediately used in the reverse transcription step.
(§3) Using the LightCycler software and an in-house LIMS system, dose response curves for each compound were calculated and the half maximal effective concentration (EC50) and the half maximal cytotoxic concentration (CC50) were determined (Tables 5-8).

The test system of the next data set is DENV-1 strain TC974 #666. In words: Tetravalent RT-qPCR assay, serotype 1. Format: cell-based. The following applies: Dengue virus, DENV1, 72 h; RT-qPCR serotype 1 TC974#666, Protocol A, Vero cells, day 3. As to the method:
as §1, §2
(§4) In preparation of the reverse transcription step, mix A (table 3A) was prepared and 7.57 μL/well was dispensed in a 96-well plate. After addition of 5 μL of the cell lysates, a five minute denaturation step at 75° C. was performed (table 3B). Afterwards, 7.43 μL of mix B was added (table 3C) and the reverse transcription step was initiated (table 3D) to generate cDNA.
(§5) Finally, a RT-qPCR mix was prepared, mix C (table 4A), and 22.02 μL/well was dispensed in 96-well LightCycler qPCR plates to which 3 μL of cDNA was added and the qPCR was performed according to the conditions in table 4B on a LightCycler 480.
as §3

For a further data set, the system named is DENV-3 strain H87. In words: Tetravalent RT-qPCR assay, serotype 3. The class given is cell-based. The following applies: Dengue virus, DENV3, 72 h; RT-qPCR serotype 3 H87, Protocol A, Vero cells, day 3. As to the method: as §1, §2, §4, §5, §3
In general terms: Quantitative PCR measures a nucleic acid by following its amplification.

For another data set, the system named is DENV-2 16681 strain. In words: DENV-2 antiviral assay (eGFP-labeled virus in Vero cells). Format: cell-based, Dengue virus. Conditions: DENV-2 16681 eGFP, MOI 0.5, 3 days. As to the method: The antiviral activity of all the compounds of the invention was tested against the DENV-2 16681 strain which was labeled with enhanced green fluorescent protein (eGPF). The culture medium consists of minimal essential medium supplemented with 2% of heat-inactivated fetal calf serum, 0.04% gentamycin (50 mg/mL) and 2 mM of L-glutamine. Vero cells, obtained from ECACC, were suspended in culture medium and 25 μL was added to 384-well plates (2500 cells/well), which already contain the antiviral compounds. Typically, these plates contain a 5-fold serial dilution of 9 dilution steps of the test compound at 200 times the final concentration in 100% DMSO (200 nL). […] Finally, each plate contains wells which are assigned as virus controls (containing cells and virus in the absence of compound), cell controls (containing cells in the absence of virus and compound) and medium controls (containing medium in the absence of cells, virus and compounds). To the wells assigned as medium control, 25 μL of culture medium was added instead of Vero cells. Once the cells were added to the plates, the plates were incubated for 30 minutes at room temperature to allow the cells to distribute evenly within the wells. Next, the plates were incubated in a fully humidified incubator (37° C., 5% CO2) until the next day. Then, DENV-2 strain 16681, labeled with eGFP, was added at a multiplicity of infection (MOI) of 0.5. Therefore, 15 μL of virus suspension was added to all the wells containing test compound and to the wells assigned as virus control. In parallel, 15 μL of culture medium was added to the medium and cell controls. Next, the plates were incubated for 3 days in a fully humidified incubator (37° C., 5% CO2). At the day of the read out, the eGFP fluorescence was measured using an automated fluorescence microscope at 488 nm (blue laser). Using an in-house LIMS system, inhibition dose response curves for each compound were calculated and the half maximal effective concentration (EC50) was determined. Therefore, the percent inhibition (I) for every test concentration is calculated using the following formula: I=100*([…])/(SVC−SCC); ST, SCC and SVC are the amount of eGFP signal in the test compound, cell control and virus control wells, respectively. The EC50 represents the concentration of a compound at which the virus replication is inhibited with 50%, as measured by a 50% reduction of the eGFP fluorescent intensity compared to the virus control. The EC50 is calculated using linear interpolation (Table 1).

A further data set relates to DENV-4 strain H241. Briefly: Tetravalent RT-qPCR assay, serotype 4. The class given is cell-based. Conditions: Dengue virus, DENV4, 72 h; RT-qPCR serotype 4 H241, Protocol A, Vero cells, day 3. The procedure: as §1, §2, §4, §5, §3
The next data set relates to DENV-2 strain 16681. In words: Tetravalent RT-qPCR assay, serotype 2. The class given is cell-based. Conditions: Dengue virus, DENV2, 72 h; RT-qPCR serotype 2 16681, Protocol A, Vero cells, day 3. The procedure: as §1, §2, §4, §5, §3
For another data set, the system named is Vero cells. Briefly: Toxicity on the same plates (ATPlite cell viability). The following applies: Vero cells, same plates as DENV-2 antiviral assay. (Cellular ATP, detected with luciferase, serves as a proxy for viable cell number.)
Assay in data set [2]: as above
Conditions: African green monkey, CC50, Vero cells, same plates as DENV-2 antiviral assay.

Where [3] appears, read: RT-qPCR serotype 1 TC974#666, Protocol A.
Where [4] appears, read: RT-qPCR serotype 2 16681, Protocol A.
The mark [5] stands for this setting: RT-qPCR serotype 3 H87, Protocol A.
Where [6] appears, read: RT-qPCR serotype 4 H241, Protocol A.

What is called CC50 is the concentration giving 50% cytotoxicity. Higher therefore signals lower toxicity to the cells. As a reminder, the EC50 is the midpoint of the concentration-response curve. A lower EC50 goes with an effect from little substance. Regarding `COc1cc(NC(C(=O)c2c[nH]c3ccc(C(F)(F)F)cc23)c2ccc(F)cc2OC)cc(OCCO)c1` (single isomer, unassigned) [Compound 1B, 2-(4-fluoro-2-methoxyphenyl)-2-((3-(2-hydroxyethoxy)-5-methoxyphenyl)amino)-1-(5-(trifluoromethyl)-1H-indol-3-yl)ethanone], the CC50 at 3 days in data set [1] (setting [3]) came to 3.3 µM; in data set [1] (setting [4]), 3.5 µM; in data set [1] (setting [5]), 3.2 µM; in data set [1] (setting [6]), 2.6 µM. The half-maximal effective concentration (EC50) in the data set with DENV-1 strain TC974 #666 is 0.0013 µM; with DENV-3 strain H87, 0.014 µM; in the data set on DENV-2 16681 strain it was 0.00062 µM; with DENV-4 strain H241, 0.05 µM; with DENV-2 strain 16681, 0.00041 µM.
Regarding `COc1cc(NC(C(=O)c2c[nH]c3cc(F)c(C(F)(F)F)cc23)c2ccc(F)cc2OC)cc(OCCO)c1` (single isomer, unassigned) [Compound 3A, 2-(4-fluoro-2-methoxyphenyl)-1-(6-fluoro-5-(trifluoromethyl)-1H-indol-3-yl)-2-((3-(2-hydroxyethoxy)-5-methoxyphenyl)amino)ethanone], the CC50 at 3 days in data set [1] (setting [3]) is over 2.5 µM; in data set [1] (setting [4]), 2.6 µM; in data set [1] (setting [5]), over 2.5 µM; in data set [1] (setting [6]), over 2.5 µM. Also, the EC50 was found to be 0.0021 µM in the data set on DENV-1 strain TC974 #666; 0.018 µM in the data set on DENV-3 strain H87; 0.00047 µM in the data set on DENV-2 16681 strain; 0.062 µM in the data set on DENV-4 strain H241; 0.00046 µM in the data set on DENV-2 strain 16681. The compound further had a 50% cytotoxic concentration (CC50) in the data set on Vero cells of 2.4 µM.
For `COc1cc(NC(C(=O)c2c[nH]c3c(C)cc(C(F)(F)F)cc23)c2ccc(F)cc2OC)cc(OCCO)c1` (single isomer, unassigned) [Compound 4B, 2-(4-fluoro-2-methoxyphenyl)-2-((3-(2-hydroxyethoxy)-5-methoxyphenyl)amino)-1-(7-methyl-5-(trifluoromethyl)-1H-indol-3-yl)ethanone], the half-maximal cytotoxic concentration (CC50) at 3 days was over 2.5 µM in data set [1] (setting [3]), over 2.4 µM in data set [1] (setting [4]), over 2.5 µM in data set [1] (setting [5]) and over 2.1 µM in data set [1] (setting [6]). Further, the EC50 in the data set on DENV-1 strain TC974 #666 worked out at 0.0014 µM; with DENV-3 strain H87, 0.0092 µM; in the data set with DENV-2 16681 strain, 0.00046 µM; with DENV-4 strain H241, 0.051 µM; in the data set on DENV-2 strain 16681 it was 0.00036 µM. Moreover, the CC50 with Vero cells amounted to 2.5 µM.
On to `COc1cc(NC(C(=O)c2c[nH]c3ccc(OC(F)(F)F)cc23)c2ccc(F)cc2OC)cc(OCCO)c1` (single isomer, unassigned) [Compound 5A, 2-(4-fluoro-2-methoxyphenyl)-2-((3-(2-hydroxyethoxy)-5-methoxyphenyl)amino)-1-(5-(trifluoromethoxy)-1H-indol-3-yl)ethanone], for which the EC50 in the data set on DENV-2 16681 strain came to 0.03 µM. In data set [2], this compound gave a cytotoxic concentration (CC50) of 5.4 µM.
For the compound `COc1cc(NC(C(=O)c2c[nH]c3ccc(OC(F)(F)F)cc23)c2ccc(F)cc2OC)cc(OCCO)c1` (single isomer, unassigned) [Compound 5B, 2-(4-fluoro-2-methoxyphenyl)-2-((3-(2-hydroxyethoxy)-5-methoxyphenyl)amino)-1-(5-(trifluoromethoxy)-1H-indol-3-yl)ethanone], the CC50 at 3 days is over 2.5 µM in data set [1] (setting [3]), 3.2 µM in data set [1] (setting [4]), over 2.5 µM in data set [1] (setting [5]) and 2.4 µM in data set [1] (setting [6]). Further, the concentration giving a half-maximal response (EC50) in the data set on DENV-1 strain TC974 #666 stood at 0.00077 µM; with DENV-3 strain H87, 0.006 µM; in the data set on DENV-2 16681 strain, 0.0003 µM; with DENV-4 strain H241, 0.05 µM; in the data set with DENV-2 strain 16681, 0.00036 µM. This compound also showed a cytotoxic concentration (CC50) in the data set on Vero cells of 3.3 µM.
Take `COc1cc(NC(C(=O)c2c[nH]c3ccc(C(F)(F)F)cc23)c2ccc(Cl)cc2OC)cc(OCCO)c1` (single isomer, unassigned) [Compound 9A, 2-(4-chloro-2-methoxyphenyl)-2-((3-(2-hydroxyethoxy)-5-methoxyphenyl)amino)-1-(5-(trifluoromethyl)-1H-indol-3-yl)ethanone]: the EC50 in the data set on DENV-2 16681 strain is 0.012 µM. Besides, half-maximal cytotoxicity in data set [2] (CC50) was put at 3.5 µM.
Regarding `COc1cc(NC(C(=O)c2c[nH]c3ccc(OC(F)(F)F)cc23)c2ccc(Cl)cc2OC)cc(OCCO)c1` (single isomer, unassigned) [Compound 13A, 2-(4-chloro-2-methoxyphenyl)-2-((3-(2-hydroxyethoxy)-5-methoxyphenyl)amino)-1-(5-(trifluoromethoxy)-1H-indol-3-yl)ethanone], the CC50 at 3 days in data set [1] (setting [3]) is 1.2 µM; in data set [1] (setting [4]), 2.6 µM; in data set [1] (setting [5]), over 2.5 µM; in data set [1] (setting [6]), over 2.5 µM. Further, the EC50 with DENV-1 strain TC974 #666 was found to be 0.00051 µM; in the data set on DENV-3 strain H87 it was 0.0035 µM; in the data set with DENV-2 16681 strain, 0.00014 µM; in the data set on DENV-4 strain H241, 0.02 µM; with DENV-2 strain 16681 it was 0.0002 µM.
In turn, `COc1cc(NC(C(=O)c2c[nH]c3cc(F)c(OC(F)(F)F)cc23)c2ccc(Cl)cc2OC)cc(OCCO)c1` (single isomer, unassigned) [Compound 15A, 2-(4-chloro-2-methoxyphenyl)-1-(6-fluoro-5-(trifluoromethoxy)-1H-indol-3-yl)-2-((3-(2-hydroxyethoxy)-5-methoxyphenyl)amino)ethanone] gave an EC50 with DENV-2 16681 strain of 0.0099 µM. Half-maximal cytotoxicity in data set [2] (CC50) was put at 3.8 µM.
